PubChem BioAssay (NCI)
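Following 48 hours of exposure in 96-well plates, responses at five concentrations were used to interpolate endpoints linearly. TGI is the concentration that stops growth completely.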

Key:
Assay in all cases: NCI anticancer screen, dose series, 48 h
786-0 renal = test system: 786-0 renal
A498 renal = test system: A498 renal
A549 NSCLC = test system: A549 NSCLC
ACHN renal = test system: ACHN renal
CAKI-1 renal = test system: CAKI-1 renal
CCRF-CEM leukemia = test system: CCRF-CEM leukemia
COLO 205 colon = test system: COLO 205 colon
DLD-1 colon = test system: DLD-1 colon
DMS 273 small cell lung = test system: DMS 273 small cell lung
EKVX NSCLC = test system: EKVX NSCLC
HCT-116 colon = test system: HCT-116 colon
HL-60(TB) leukemia = test system: HL-60(TB) leukemia
HOP-18 NSCLC = test system: HOP-18 NSCLC
HOP-62 NSCLC = test system: HOP-62 NSCLC
HOP-92 NSCLC = test system: HOP-92 NSCLC
HT29 colon = test system: HT29 colon
IGROV1 ovarian = test system: IGROV1 ovarian
K-562 leukemia = test system: K-562 leukemia
KM12 colon = test system: KM12 colon
KM20L2 colon = test system: KM20L2 colon
LOX IMVI melanoma = test system: LOX IMVI melanoma
LXFL 529 NSCLC = test system: LXFL 529 NSCLC
M14 melanoma = test system: M14 melanoma
M19-MEL melanoma = test system: M19-MEL melanoma
MALME-3M melanoma = test system: MALME-3M melanoma
MOLT-4 leukemia = test system: MOLT-4 leukemia
NCI-H226 lung = test system: NCI-H226 lung
NCI-H23 lung = test system: NCI-H23 lung
NCI-H460 lung = test system: NCI-H460 lung
NCI-H522 lung = test system: NCI-H522 lung
OVCAR-3 ovarian = test system: OVCAR-3 ovarian
OVCAR-4 ovarian = test system: OVCAR-4 ovarian
OVCAR-5 ovarian = test system: OVCAR-5 ovarian
OVCAR-8 ovarian = test system: OVCAR-8 ovarian
RPMI-8226 leukemia = test system: RPMI-8226 leukemia
RXF 393 renal = test system: RXF 393 renal
RXF-631 renal = test system: RXF-631 renal
SF-268 CNS = test system: SF-268 CNS
SF-295 CNS = test system: SF-295 CNS
SF-539 CNS = test system: SF-539 CNS
SK-MEL-2 melanoma = test system: SK-MEL-2 melanoma
SK-MEL-28 melanoma = test system: SK-MEL-28 melanoma
SK-MEL-5 melanoma = test system: SK-MEL-5 melanoma
SK-OV-3 ovarian = test system: SK-OV-3 ovarian
SN12C renal = test system: SN12C renal
SNB-19 CNS = test system: SNB-19 CNS
SNB-75 CNS = test system: SNB-75 CNS
SNB-78 CNS = test system: SNB-78 CNS
SR leukemia = test system: SR leukemia
SW-620 colon = test system: SW-620 colon
TK-10 renal = test system: TK-10 renal
U251 CNS = test system: U251 CNS
UACC-257 melanoma = test system: UACC-257 melanoma
UACC-62 melanoma = test system: UACC-62 melanoma
UO-31 renal = test system: UO-31 renal
XF 498 CNS = test system: XF 498 CNS
DMS 114 small cell lung = test system: DMS 114 small cell lung
HCC-2998 colon = test system: HCC-2998 colon
HCT-15 colon = test system: HCT-15 colon

Measured: TGI

O=C(O)C1CC2CC(=O)C1C2 (stereo not given)
not listed: DMS 114 small cell lung | HCC-2998 colon | HCT-15 colon
> 100 µM: all other assays above

COC(=O)C1=C(c2ccc(Cl)cc2)C(O)N=C(NN)N1 (stereo not given)
not listed: A498 renal | COLO 205 colon | DMS 273 small cell lung | KM20L2 colon | SNB-75 CNS
> 100 µM: all other assays above
